Measured values published in paper PMC6591251, “Discovery of potent necroptosis inhibitors targeting RIPK1 kinase activity for the treatment of inflammatory disorder and cancer metastasis” (Cell Death & Disease, 2019).

Tests used:
Experiment in all cases: RBC kinase panel
Format in all cases: biochemical
Details in all cases: ATP 10 μM, Data1, Data2
[1] = target: T1, BLK (Homo sapiens, UniProt P51451)
T1 construct: purchased Reaction Biology Corporation
How it was run: (§1)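 Kinome-wide single-dose profiling: compound at 1 μM versus 369 human enzymes, two replicates per kinase, ATP concentration 10 μM.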

[2] = target: T2, CAMK2b (Homo sapiens, UniProt Q13554)
T2 construct: purchased Reaction Biology Corporation
How it was run: as §1

[3] = target: T3, CDK6/cyclin D1 (Homo sapiens, UniProt Q00534)
T3 construct: purchased Reaction Biology Corporation
How it was run: as §1

[4] = target: T4, CDK9/cyclin T1 (Homo sapiens, UniProt P50750)
T4 construct: purchased Reaction Biology Corporation
How it was run: as §1

[5] = target: T5, CK2a2 (Homo sapiens, UniProt P19784)
T5 construct: purchased Reaction Biology Corporation
How it was run: as §1

[6] = target: T6, DCAMKL2 (Homo sapiens, UniProt Q8N568)
T6 construct: purchased Reaction Biology Corporation
How it was run: as §1

[7] = target: T7, ERN2/IRE2 (Homo sapiens, UniProt Q76MJ5)
T7 construct: purchased Reaction Biology Corporation
How it was run: as §1

[8] = target: T8, GRK3 (Homo sapiens, UniProt P35626)
T8 construct: purchased Reaction Biology Corporation
How it was run: as §1

[9] = target: T9, GSK3b (Homo sapiens, UniProt P49841)
T9 construct: purchased Reaction Biology Corporation
How it was run: as §1

[10] = target: T10, HCK (Homo sapiens, UniProt P08631)
T10 construct: purchased Reaction Biology Corporation
How it was run: as §1

[11] = target: T11, HGK/MAP4K4 (Homo sapiens, UniProt O95819)
T11 construct: purchased Reaction Biology Corporation
How it was run: as §1

[12] = target: T12, HIPK2 (Homo sapiens, UniProt Q9H2X6)
T12 construct: purchased Reaction Biology Corporation
How it was run: as §1

[13] = target: T13, IGF1R (Homo sapiens, UniProt P08069)
T13 construct: purchased Reaction Biology Corporation
T13 sequence (P08069 31-1367): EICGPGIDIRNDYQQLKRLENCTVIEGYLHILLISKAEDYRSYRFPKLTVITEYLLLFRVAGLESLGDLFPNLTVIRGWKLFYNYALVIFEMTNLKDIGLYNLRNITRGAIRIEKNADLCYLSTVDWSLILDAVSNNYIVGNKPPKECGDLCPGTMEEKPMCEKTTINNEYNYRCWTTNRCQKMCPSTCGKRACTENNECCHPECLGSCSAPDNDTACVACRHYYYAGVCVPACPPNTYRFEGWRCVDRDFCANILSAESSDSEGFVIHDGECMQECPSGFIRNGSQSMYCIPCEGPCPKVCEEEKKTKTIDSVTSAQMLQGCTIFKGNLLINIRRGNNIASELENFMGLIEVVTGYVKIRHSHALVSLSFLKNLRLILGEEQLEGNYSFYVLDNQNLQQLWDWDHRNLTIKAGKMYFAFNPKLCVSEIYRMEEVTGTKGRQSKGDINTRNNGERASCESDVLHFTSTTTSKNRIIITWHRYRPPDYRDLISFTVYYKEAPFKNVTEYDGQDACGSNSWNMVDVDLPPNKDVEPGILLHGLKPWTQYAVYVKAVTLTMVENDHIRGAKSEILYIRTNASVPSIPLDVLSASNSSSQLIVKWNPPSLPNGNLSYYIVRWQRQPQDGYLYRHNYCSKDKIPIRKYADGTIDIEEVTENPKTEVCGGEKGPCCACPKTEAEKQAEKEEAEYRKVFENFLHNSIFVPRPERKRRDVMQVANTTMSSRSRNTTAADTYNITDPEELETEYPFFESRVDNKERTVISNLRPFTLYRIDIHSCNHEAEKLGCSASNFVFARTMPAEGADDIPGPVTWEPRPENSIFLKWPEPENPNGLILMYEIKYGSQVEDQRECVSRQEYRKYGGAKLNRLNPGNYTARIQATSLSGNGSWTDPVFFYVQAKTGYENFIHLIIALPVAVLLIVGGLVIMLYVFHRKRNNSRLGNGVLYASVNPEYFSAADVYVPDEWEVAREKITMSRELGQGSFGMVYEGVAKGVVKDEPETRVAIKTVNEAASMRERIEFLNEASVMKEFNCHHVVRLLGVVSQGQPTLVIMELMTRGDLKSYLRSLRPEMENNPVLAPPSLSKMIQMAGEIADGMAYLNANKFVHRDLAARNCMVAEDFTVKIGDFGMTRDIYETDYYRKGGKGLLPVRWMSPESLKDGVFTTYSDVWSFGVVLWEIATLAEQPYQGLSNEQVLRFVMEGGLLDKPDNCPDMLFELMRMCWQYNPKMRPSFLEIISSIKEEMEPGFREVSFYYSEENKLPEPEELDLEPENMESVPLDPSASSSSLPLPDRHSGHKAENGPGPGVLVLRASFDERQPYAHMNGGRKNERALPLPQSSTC
How it was run: as §1

[14] = target: T14, KDR/VEGFR2 (Homo sapiens, UniProt P35968)
T14 construct: purchased Reaction Biology Corporation
T14 sequence (P35968 20-1356): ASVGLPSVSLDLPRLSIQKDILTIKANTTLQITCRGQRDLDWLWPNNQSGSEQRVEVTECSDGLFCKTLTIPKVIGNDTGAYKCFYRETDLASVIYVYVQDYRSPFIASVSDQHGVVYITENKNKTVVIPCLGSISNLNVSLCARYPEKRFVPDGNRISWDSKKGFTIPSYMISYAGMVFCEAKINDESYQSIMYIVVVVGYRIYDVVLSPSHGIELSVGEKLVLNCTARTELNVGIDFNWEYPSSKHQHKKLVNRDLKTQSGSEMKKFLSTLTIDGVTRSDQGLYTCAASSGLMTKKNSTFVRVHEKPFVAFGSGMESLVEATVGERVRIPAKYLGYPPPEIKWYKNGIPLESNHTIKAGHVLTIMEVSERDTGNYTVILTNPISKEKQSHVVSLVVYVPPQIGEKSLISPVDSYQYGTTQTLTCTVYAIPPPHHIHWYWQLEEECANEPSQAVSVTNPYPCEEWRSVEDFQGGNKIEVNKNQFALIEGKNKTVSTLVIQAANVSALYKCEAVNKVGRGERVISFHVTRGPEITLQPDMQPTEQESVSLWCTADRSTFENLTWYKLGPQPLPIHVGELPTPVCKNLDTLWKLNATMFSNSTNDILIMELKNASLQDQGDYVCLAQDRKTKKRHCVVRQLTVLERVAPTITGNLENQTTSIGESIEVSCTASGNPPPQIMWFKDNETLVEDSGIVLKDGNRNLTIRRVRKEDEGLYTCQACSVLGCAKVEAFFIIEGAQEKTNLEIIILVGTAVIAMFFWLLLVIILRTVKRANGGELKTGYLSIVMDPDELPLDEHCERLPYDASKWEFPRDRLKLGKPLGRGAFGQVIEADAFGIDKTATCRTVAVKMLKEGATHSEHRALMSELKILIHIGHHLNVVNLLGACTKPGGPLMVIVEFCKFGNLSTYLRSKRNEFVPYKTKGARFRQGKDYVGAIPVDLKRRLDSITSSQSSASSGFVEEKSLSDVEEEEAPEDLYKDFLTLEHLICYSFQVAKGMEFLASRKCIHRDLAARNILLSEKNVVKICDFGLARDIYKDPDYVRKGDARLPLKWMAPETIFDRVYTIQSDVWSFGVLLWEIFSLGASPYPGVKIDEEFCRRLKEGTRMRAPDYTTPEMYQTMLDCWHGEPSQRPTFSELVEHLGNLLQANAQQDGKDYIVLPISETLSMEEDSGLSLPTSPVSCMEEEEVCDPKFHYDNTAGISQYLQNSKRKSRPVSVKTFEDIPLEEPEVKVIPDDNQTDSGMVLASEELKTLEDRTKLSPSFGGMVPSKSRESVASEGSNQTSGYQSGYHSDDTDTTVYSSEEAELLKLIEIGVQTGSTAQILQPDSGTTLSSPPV
How it was run: as §1

[15] = target: T15, KSR2 (Homo sapiens, UniProt Q6VAB6)
T15 construct: purchased Reaction Biology Corporation
How it was run: as §1

[16] = target: T16, LOK/STK10 (Homo sapiens, UniProt O94804)
T16 construct: purchased Reaction Biology Corporation
How it was run: as §1

[17] = target: T17, MEKK3 (Homo sapiens, UniProt Q99759)
T17 construct: purchased Reaction Biology Corporation
T17 sequence (Q99759 whole entry): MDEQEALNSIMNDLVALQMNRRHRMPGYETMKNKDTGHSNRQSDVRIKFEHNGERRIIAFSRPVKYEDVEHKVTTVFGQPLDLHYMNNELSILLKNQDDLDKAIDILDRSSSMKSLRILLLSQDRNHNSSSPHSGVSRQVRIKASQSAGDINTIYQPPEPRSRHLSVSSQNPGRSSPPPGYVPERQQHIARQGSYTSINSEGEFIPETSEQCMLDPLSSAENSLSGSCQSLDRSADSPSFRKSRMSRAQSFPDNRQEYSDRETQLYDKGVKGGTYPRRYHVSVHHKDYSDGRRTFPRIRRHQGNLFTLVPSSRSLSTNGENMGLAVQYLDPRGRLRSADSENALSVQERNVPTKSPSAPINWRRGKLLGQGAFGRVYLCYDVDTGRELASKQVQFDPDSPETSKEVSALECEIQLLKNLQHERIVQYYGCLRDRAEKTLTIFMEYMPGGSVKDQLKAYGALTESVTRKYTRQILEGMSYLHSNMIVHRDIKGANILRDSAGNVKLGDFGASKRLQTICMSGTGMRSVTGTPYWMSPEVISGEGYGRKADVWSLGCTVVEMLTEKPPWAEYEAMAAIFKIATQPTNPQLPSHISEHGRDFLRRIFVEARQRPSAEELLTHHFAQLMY
How it was run: as §1

[18] = target: T18, MRCKb/CDC42BPB (Homo sapiens, UniProt Q9Y5S2)
T18 construct: purchased Reaction Biology Corporation
How it was run: as §1

[19] = target: T19, MST3/STK24 (Homo sapiens, UniProt Q9Y6E0)
T19 construct: purchased Reaction Biology Corporation
T19 sequence (Q9Y6E0 whole entry): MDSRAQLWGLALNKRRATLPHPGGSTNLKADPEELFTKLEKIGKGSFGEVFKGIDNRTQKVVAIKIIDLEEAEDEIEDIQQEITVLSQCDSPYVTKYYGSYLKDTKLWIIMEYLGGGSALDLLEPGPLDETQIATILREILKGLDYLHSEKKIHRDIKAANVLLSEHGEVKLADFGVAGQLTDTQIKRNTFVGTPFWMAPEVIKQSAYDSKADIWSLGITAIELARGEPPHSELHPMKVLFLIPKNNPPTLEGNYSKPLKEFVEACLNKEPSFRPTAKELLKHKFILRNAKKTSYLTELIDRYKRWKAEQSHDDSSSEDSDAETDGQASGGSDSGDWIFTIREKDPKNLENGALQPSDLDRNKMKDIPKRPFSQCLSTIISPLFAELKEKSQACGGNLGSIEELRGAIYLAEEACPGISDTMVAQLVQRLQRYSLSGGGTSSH
How it was run: as §1

[20] = target: T20, MYO3A (Homo sapiens, UniProt Q8NEV4)
T20 construct: purchased Reaction Biology Corporation
How it was run: as §1

[21] = target: T21, NEK4 (Homo sapiens, UniProt P51957)
T21 construct: purchased Reaction Biology Corporation
T21 sequence (P51957 whole entry): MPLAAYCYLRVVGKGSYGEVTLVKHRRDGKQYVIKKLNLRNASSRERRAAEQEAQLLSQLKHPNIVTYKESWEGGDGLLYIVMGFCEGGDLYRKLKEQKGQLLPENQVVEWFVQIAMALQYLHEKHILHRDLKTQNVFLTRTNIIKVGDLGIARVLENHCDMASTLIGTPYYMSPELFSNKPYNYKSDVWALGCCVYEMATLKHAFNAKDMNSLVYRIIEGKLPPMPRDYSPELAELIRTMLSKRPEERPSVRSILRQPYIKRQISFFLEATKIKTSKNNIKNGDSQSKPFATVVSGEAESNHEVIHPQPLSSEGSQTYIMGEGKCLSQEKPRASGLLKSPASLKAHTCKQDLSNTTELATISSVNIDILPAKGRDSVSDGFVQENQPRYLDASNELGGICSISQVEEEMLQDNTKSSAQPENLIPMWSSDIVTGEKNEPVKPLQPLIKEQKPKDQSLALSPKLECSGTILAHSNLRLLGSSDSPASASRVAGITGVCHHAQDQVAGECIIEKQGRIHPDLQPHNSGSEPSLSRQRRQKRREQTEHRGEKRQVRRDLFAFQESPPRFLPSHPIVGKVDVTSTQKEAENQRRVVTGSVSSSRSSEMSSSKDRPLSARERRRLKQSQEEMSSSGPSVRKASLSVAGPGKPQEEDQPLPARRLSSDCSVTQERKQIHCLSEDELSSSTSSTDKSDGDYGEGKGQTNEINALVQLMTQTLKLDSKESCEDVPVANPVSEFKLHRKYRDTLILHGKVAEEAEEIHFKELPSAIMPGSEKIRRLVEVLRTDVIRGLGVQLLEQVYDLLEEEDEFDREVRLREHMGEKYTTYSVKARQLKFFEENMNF
How it was run: as §1

[22] = target: T22, NEK7 (Homo sapiens, UniProt Q8TDX7)
T22 construct: purchased Reaction Biology Corporation
How it was run: as §1

[23] = target: T23, P38g (Homo sapiens, UniProt P53778)
T23 construct: purchased Reaction Biology Corporation
How it was run: as §1

[24] = target: T24, PAK4 (Homo sapiens, UniProt O96013)
T24 construct: purchased Reaction Biology Corporation
How it was run: as §1

[25] = target: T25, PKCnu/PRKD3 (Homo sapiens, UniProt O94806)
T25 construct: purchased Reaction Biology Corporation
How it was run: as §1

[26] = target: T26, PKCzeta (Homo sapiens, UniProt Q05513)
T26 construct: purchased Reaction Biology Corporation
How it was run: as §1

[27] = target: T27, RAF1 (Homo sapiens, UniProt P04049)
T27 construct: purchased Reaction Biology Corporation
How it was run: as §1

[28] = target: T28, RIPK2 (Homo sapiens, UniProt O43353)
T28 construct: purchased Reaction Biology Corporation
How it was run: as §1

[29] = target: T29, RIPK3 (Homo sapiens, UniProt Q9Y572)
T29 construct: purchased Reaction Biology Corporation
How it was run: as §1

[30] = target: T30, RSK4 (Homo sapiens, UniProt Q9UK32)
T30 construct: purchased Reaction Biology Corporation
How it was run: as §1

[31] = target: T31, STK22D/TSSK1 (Homo sapiens, UniProt Q9BXA7)
T31 construct: purchased Reaction Biology Corporation
How it was run: as §1

[32] = target: T32, VRK1 (Homo sapiens, UniProt Q99986)
T32 construct: purchased Reaction Biology Corporation
How it was run: as §1

[33] = target: T33, c-MET (Homo sapiens, UniProt P08581)
T33 construct: purchased Reaction Biology Corporation
How it was run: as §1

T1 sequence (P51451 whole entry): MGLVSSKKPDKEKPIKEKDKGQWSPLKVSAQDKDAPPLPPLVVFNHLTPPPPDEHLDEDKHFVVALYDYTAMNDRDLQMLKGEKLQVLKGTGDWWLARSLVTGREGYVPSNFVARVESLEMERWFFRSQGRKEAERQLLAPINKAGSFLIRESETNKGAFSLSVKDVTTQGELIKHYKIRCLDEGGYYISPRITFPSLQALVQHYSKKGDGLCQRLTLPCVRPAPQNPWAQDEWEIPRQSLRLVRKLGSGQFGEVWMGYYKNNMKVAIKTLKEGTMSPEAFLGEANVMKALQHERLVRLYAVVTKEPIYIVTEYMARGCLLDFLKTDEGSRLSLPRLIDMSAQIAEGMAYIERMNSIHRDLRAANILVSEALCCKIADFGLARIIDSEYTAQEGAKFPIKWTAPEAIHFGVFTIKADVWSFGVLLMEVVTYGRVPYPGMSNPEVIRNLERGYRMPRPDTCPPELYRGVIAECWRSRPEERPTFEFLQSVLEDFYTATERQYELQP

CC(=O)Nc1nc2ccc(-c3cnc(C)c(NC(=O)OC4CCCCC4)c3)cc2s1 [PK68, cyclohexyl (5-(2-acetamidobenzo[d]thiazol-6-yl)-2-methylpyridin-3-yl)carbamate]
Activity% ([1]; 1 μM): 93.58% | activity at 1 µM [1]: 95.4% | Activity% ([2]; 1 μM): 99.42% | activity at 1 µM [2]: 102% | Activity% ([3]; 1 μM): 93.73% | activity at 1 µM [3]: 93.8% | Activity% ([4]; 1 μM): 110.56% | activity at 1 µM [4]: 111% | Activity% ([5]; 1 μM): 100.37% | activity at 1 µM [5]: 101% | Activity% ([6]; 1 μM): 99.58% | activity at 1 µM [6]: 100% | Activity% ([7]; 1 μM): 92.56% | activity at 1 µM [7]: 93.1% | Activity% ([8]; 1 μM): 102.09% | activity at 1 µM [8]: 103% | Activity% ([9]; 1 μM): 97.24% | activity at 1 µM [9]: 98.1% | Activity% ([10]; 1 μM): 100.14% | activity at 1 µM [10]: 102% | Activity% ([11]; 1 μM): 82.64% | activity at 1 µM [11]: 84.4% | Activity% ([12]; 1 μM): 110.22% | activity at 1 µM [12]: 111% | Activity% ([13]; 1 μM): 103.88% | activity at 1 µM [13]: 104% | Activity% ([14]; 1 μM): 88.68% | activity at 1 µM [14]: 90.3% | Activity% ([15]; 1 μM): 99.64% | activity at 1 µM [15]: 100% | Activity% ([16]; 1 μM): 97.50% | activity at 1 µM [16]: 97.9% | Activity% ([17]; 1 μM): 111.45% | activity at 1 µM [17]: 115% | Activity% ([18]; 1 μM): 101.65% | activity at 1 µM [18]: 104% | Activity% ([19]; 1 μM): 100.31% | activity at 1 µM [19]: 102% | Activity% ([20]; 1 μM): 91.22% | activity at 1 µM [20]: 92.2% | Activity% ([21]; 1 μM): 97.97% | activity at 1 µM [21]: 98.9% | Activity% ([22]; 1 μM): 103.37% | activity at 1 µM [22]: 105% | Activity% ([23]; 1 μM): 105.38% | activity at 1 µM [23]: 109% | Activity% ([24]; 1 μM): 101.97% | activity at 1 µM [24]: 104% | Activity% ([25]; 1 μM): 101.06% | activity at 1 µM [25]: 102% | Activity% ([26]; 1 μM): 102.04% | activity at 1 µM [26]: 103% | Activity% ([27]; 1 μM): 75.37% | activity at 1 µM [27]: 76.1% | Activity% ([28]; 1 μM): 85.19% | activity at 1 µM [28]: 91.2% | Activity% ([29]; 1 μM): 104.99% | activity at 1 µM [29]: 106% | Activity% ([30]; 1 μM): 103.68% | activity at 1 µM [30]: 105% | Activity% ([31]; 1 μM): 103.75% | activity at 1 µM [31]: 104% | Activity% ([32]; 1 μM): 104.78% | activity at 1 µM [32]: 105% | Activity% ([33]; 1 μM): 101.99% | activity at 1 µM [33]: 102%
